Measured values: patent publication US11406625B2, “Method of treating amyotrophic lateral sclerosis with pridopidine” (PRILENIA NEUROTHERAPEUTICS LTD., priority 2017, dated 2022)
Like-named read-outs stand apart in the source and are kept apart here.

Legend:
[1] = test system: ALS patients; conditions: cited from earlier work
[2] = test system: neuroblastoma cell line; conditions: S1R-dependent (Geva 2016); cited from earlier work
[3] = test system: human subjects afflicted with ALS; conditions: periodic oral administration
[4] = test system: SOD1G93A mice and WT controls; conditions: for increase in the muscle fiber diameter: Gastrocnemius, 30 mg/kg s.c. daily
Experimental: NMJ disruption and the subsequent skeletal muscle wasting are two main pathologies of ALS. Effect of pridopidine on muscle fiber atrophy and preservation of NMJs was evaluated in-vivo. Presymptomatic SOD1G93A mice and WT controls (5 weeks old) were treated with either saline, or pridopidine 3 or 30 mg/kg, by daily s.c. administration for 11 weeks. The Gastrocnemius muscles from vehicle or pridopidine-treated (30 mg/kg s.c.) mice were extracted from the SOD1G93A and WT mice at age 16 weeks. Muscle cross-sections were stained with Hematoxylin & Eosin (H& E), and the mean muscle fiber diameter was quantified for each group (FIG. 10a). NMJ preservation was evaluated by confocal imaging of co-localizing pre (NFH+Synapsin-I (green)- and post-synaptic (AchR (BTX; red) markers and counting the number of fully innervated NMJs in gastrocnemius muscles (FIG. 11a).

[5] = test system: ERK; conditions: 30 minutes
Experimental: The ERK pathway promotes numerous cellular functions including proliferation and differentiation. […] Primary MN cultures at 2 DIV were starved overnight in neurotrophin- and serum-free medium (PNB). The following day, cultures were treated for 30 minutes with pridopidine or with BDNF as a positive control.

[6] = test system: rat striatum; conditions: transcriptomic analysis; cited from earlier work
[7] = test system: MN-myocyte co-culture
Experimental: Synapse disruption is the earliest cellular compartment disrupted in ALS. To test the ability of pridopidine to affect synapse function in an ALS model, cultures from Experiment 2 were grown for approximately four additional days (day 18), when axons extend into the distal compartment and generate NMJs.
Scale bar: 201 μm. […] To evaluate NMJ function, movies of muscle contraction were acquired at a frame rate of 30 frames per second for 1000 frames (FIG. 5b).
Briefly, contractile activity of muscles in the distal compartment of the MFC, which were overlapped by at least one axon was examined. Muscles were categorized into two groups: ‘Contracting’ or ‘Non-contracting’, depending on their motile activity during the movie. The motility of muscles was validated by generating intensity-over-time plots for each muscle (FIG. 5b). The number of contracting muscle fibers per chamber was divided by the total number of muscle fibers analyzed in the same chamber, yielding the percentage of contracting myotubes as an output for NMJ activity.

[8] = test system: SOD1G93A mice; conditions: 30 mg/kg daily s.c. for 11 weeks
Experimental: Presymptomatic SOD1G93A mice (5 weeks of age) and WT controls were treated with either saline, 3 or 30 mg/kg pridopidine, by daily s.c. (subcutaneous) administration for 11 weeks (until 16 weeks of age). At the end of the experiment, lumbar spinal cords (L1-L6) were extracted, fixed, and embedded for cryosectioning.

[9] = test system: S1R; conditions: by activation of the S1R (Ryskamp 2017); cited from earlier work
[10] = test system: motor neurons (MNs) from spinal cord explants; assay: Axonal transport assay of Qdot-BDNF in microfluidic chamber; format: cell-based, mice; conditions: for velocity of BDNF axonal transport: S1R−/− (S1R KO) MNs
Source text: Healthy motor neurons (MN) extend axons over long distances and through varying extracellular microenvironments to form synapses with muscles. The ability of the neuron to maintain this specialized morphology depends on cytoskeletal elements and continuous transport of proteins and organelles to and from the cell body. Cytoskeletal alterations are a major pathway implicated in the pathogenesis of ALS affecting axonal transport, growth and neuromuscular junction (NMJ) function (Eykens and Robberecht, 2015). Alterations in axonal transport are one of the first cellular processes that occur in neurodegenerative disease, including ALS. Axonal transport was evaluated using an in vitro compartmentalized system of microfluidic chambers (MFC) that separates neuronal cell bodies from their axons and synapses, enabling the study of retrograde/anterograde transport by specific monitoring and manipulation of cellular microenvironments (FIG. 1b: Zahavi 2015; Ionescu 2016).
Quantum-Dot labeled BDNF (Qdot BDNF) is retrogradely transported in axons of motor neurons grown from spinal cord explants in a microfluidic chamber (MFC). A MFC was used to analyze Qdot BDNF axonal transport. Axonal transport of BDNF in the SOD1 model (SOD1G93A) for ALS has been studied (Bilsland 2010; Perlson 2009; De Vos 2007). The effect of pridopidine on transport of Qdot BDNF along the axons of motor neurons was assessed in spinal cord explants from E12.5 SOD1 G93A and WT littermate mice (LM). Experimental workflow for the axonal transport assay (from left to right, FIG. 1a): SOD1G93A or wild Type (LM) spinal cord explants were plated in the MFC. At about 5 days post plating, axons began to cross over into the distal compartment. On day 6 post plating, an amount of pridopidine was added to both compartments. On day 7, Qdot-BDNF was added to the distal compartment and axonal transport was imaged using a high-resolution spinning-disk confocal microscope. Schematic illustration of microfluidic chamber system (FIG. 1b): Explants planted in the proximal compartment extend axons to the distal compartment, where Qdot-BDNF is applied exclusively prior to visualization.
Spinning disk confocal microscopy was used to track Qdot BDNF along the axons of motor neuron explant cultures. Time lapse images of Qdot-BDNF axonal transport as acquired at 60× magnification (FIG. 1c). Arrowheads point to a single Qdot-BDNF particle that is retrogradely transported (left) towards the cell body. Scale bar: 10 μm. […] Scale bars: horizontal 10 μm: vertical 100 seconds (FIG. 1c).
. Six independent biological repeats, from 6 different cultures were tested so that from each culture and explant with neurons/glia ˜250 BDNF particles were followed along the axons in the grooves. Velocity refers to the movement of a single BDNF particle. The experiment was repeated with MNs from mice in which sigma 1 receptor was genetically deleted (S1R KO or S1R−/−) (Langa, 2003). Ventral spinal cord sections from S1R−/− mice embryos were cultured and plated in the MFC as described above, and the axonal transport of Qdot-BDNF was analyzed.
SOD1G93 and S1R−/− explants with or without pridopidine were compared to littermate controls (LM).
Qdot-BDNF particle tracking was performed on Bitplane Imaris, using the semi-automated spot tracking function. […]; stop duration: speed<0.1 μm/sec for 3 frames. Data were then exported to MATLAB for further analysis of particle transport including Instantaneous Velocities (FIG. 2a) from 6 independent cultures, and Stop count (FIG. 2b).

[11] = test system: motor neuron axons co-cultured with primary myocytes; conditions: myocytes carrying SOD1G93A mutation, 1 μM
Experimental: Primary muscle cells from presymptomatic (P60) WT or SOD1G93A mice were cultured. On day 6 primary skeletal myoblasts were cultured in the distal compartment of a MFC. About six days later (day 12), ventral spinal cord explants from WT or SOD1G93A E12.5 mouse embryos that express HB9-GFP (a specific motor neuron marker) were plated in the proximal compartment, followed by application of pridopidine or vehicle to both compartments. Pridopidine was refreshed every other day. Two days post explant plating (day 14), motor axon growth and degeneration were evaluated using live imaging on a spinning disc confocal system. Axonal growth was tracked by imaging every 10 min for 8 hrs. Experiments were repeated three times.

CC1=NN(c2ccccc2)C(=O)C1 [edaravone]
physical decline [1]: slows physical decline

CCCN1CCC(c2cccc(S(C)(=O)=O)c2)CC1 [pridopidine, 4-(3-(Methylsulfonyl)phenyl)-1-propylpiperidine]
secretion of BDNF [2]: enhance secretion of the neuroprotective brain-derived neurotrophic factor (BDNF) | symptoms of ALS in human subjects [3]: provides a clinically meaningful advantage in reducing the symptoms of ALS | loss of NMJs ([4]; SOD1G93A mice compared to WT, gastrocnemius, pridopidine treated): ~20% | increase in the muscle fiber diameter ([4]; SOD1G93A mice): ~4 μm | increase in the muscle fiber diameter ([4]; WT mice): ~5 μm | activation of ERK (pERK) ([5]; S1R−/− MN cultures, 0.1 μM and 1 μM): but not in S1R−/− MN cultures | increase in pERK (pERK/ERK ratio) ([5]; SOD1G93A MNs, 0.1 μM): ~2.9 fold | increase in pERK (pERK/ERK ratio) ([5]; SOD1G93A MNs, 1 μM): ~8.5 fold | increase in pERK (pERK/ERK ratio) ([5]; WT MNs, 0.1 μM): ~3.5 fold | increase in pERK (pERK/ERK ratio) ([5]; WT MNs, 1 μM): ~4 fold | expression of BDNF, D1R, GR and Akt/PI3K pathways [6]: activates expression | percentage of contracting myocytes (neuromuscular activity) ([7]; S1R−/− MNs co-cultures, 0.1μM): did not restore the neuromuscular activity | percentage of contracting myocytes ([7]; S1R−/− MNs co-cultures, 1 μM): significantly lower than the percentage of contracting myocytes in untreated and treated WT cultures | percentage of contracting myocytes ([7]; SOD1G93A myocytes co-culture, 0.1μM): increases the percentage of contracting myocytes and restores neuromuscular activity to WT levels | percentage of contracting myocytes ([7]; SOD1G93A myocytes co-culture, 1μM): increases the percentage of contracting myocytes and restores neuromuscular activity to WT levels | innervation rate of muscles ([7]; muscles carrying SOD1 mutation, 1 μM): increases innervation rate of muscles carrying SOD1 mutation to near WT levels | reduction of number of mutant SOD1 aggregates, gray matter ([8]; spinal cord gray matter): ~50% | reduction of number of mutant SOD1 aggregates, white matter ([8]; spinal cord white matter): ~50% | spine impairment and aberrant calcium signaling [9]: rescue spine impairment and aberrant calcium signaling | velocity of BDNF axonal transport ([10]; 0.1 μM): not able to recover these defects | velocity of BDNF axonal transport ([10]; 1 μM): not able to recover these defects | axonal transport parameters of Qdot-BDNF ([10]; S1R−/− MNs, any of the concentrations tested): not responsive to pridopidine | instantaneous velocity of Qdot-BDNF particles ([10]; SOD1G93A MNs, 0.1 μM): accelerated the instantaneous velocities | particle stop count (number of counted stops of Qdot-BDNF per second) ([10]; SOD1G93A MNs, 0.1 μM): reduced the number of pauses during axonal transport | instantaneous velocity of Qdot-BDNF particles ([10]; SOD1G93A MNs, 1 μM): accelerated the instantaneous velocities | particle stop count (number of counted stops of Qdot-BDNF per second) ([10]; SOD1G93A MNs, 1 μM): reduced the number of pauses during axonal transport | particle stop count (number of counted stops of Qdot-BDNF per second) ([10]; WT MNs, 0.1 μM): reduced the number of pauses during axonal transport | instantaneous velocity of Qdot-BDNF particles ([10]; WT MNs, 0.1 μM, overnight incubation): accelerated the instantaneous velocities | axonal growth: number of grooves with axons crossing into muscle compartment [11]: increased number of axons crossing into the distal compartment

Nc1nc2ccc(OC(F)(F)F)cc2s1 [riluzole, reference compound]
rate of progression of the disease [1]: slows the rate of progression of the disease | instantaneous velocity of Qdot-BDNF particles ([10]; SOD1G93A MNs, 100l M (printed)): did not affect the instantaneous velocities | instantaneous velocity of Qdot-BDNF particles ([10]; SOD1G93A MNs, 251M (printed)): did not affect the instantaneous velocities
